From US9650380B2, “Difluoromethylene compound” (SATO PHARMACEUTICAL CO., LTD., priority 2012, dated 2017)

The molecules below were run against T1, human URAT1 (Homo sapiens, UniProt Q96S37) (assay: Test for uric acid transport inhibition using human URAT1 expression cells). Settings: human URAT1 stable expression CHO cells; 14C-labeled uric acid 38 μM final; incorporation 5 minutes at room temperature; 100% window defined with benzbromarone 100 μM; read-out: URAT1 inhibitory activity (IC50).
T1 construct: Human URAT1 full-length cDNA was introduced to an expression vector pcDNA5/FRT/V5-His TOPO; expressed in transfected cells
T1 sequence (Q96S37 1-553): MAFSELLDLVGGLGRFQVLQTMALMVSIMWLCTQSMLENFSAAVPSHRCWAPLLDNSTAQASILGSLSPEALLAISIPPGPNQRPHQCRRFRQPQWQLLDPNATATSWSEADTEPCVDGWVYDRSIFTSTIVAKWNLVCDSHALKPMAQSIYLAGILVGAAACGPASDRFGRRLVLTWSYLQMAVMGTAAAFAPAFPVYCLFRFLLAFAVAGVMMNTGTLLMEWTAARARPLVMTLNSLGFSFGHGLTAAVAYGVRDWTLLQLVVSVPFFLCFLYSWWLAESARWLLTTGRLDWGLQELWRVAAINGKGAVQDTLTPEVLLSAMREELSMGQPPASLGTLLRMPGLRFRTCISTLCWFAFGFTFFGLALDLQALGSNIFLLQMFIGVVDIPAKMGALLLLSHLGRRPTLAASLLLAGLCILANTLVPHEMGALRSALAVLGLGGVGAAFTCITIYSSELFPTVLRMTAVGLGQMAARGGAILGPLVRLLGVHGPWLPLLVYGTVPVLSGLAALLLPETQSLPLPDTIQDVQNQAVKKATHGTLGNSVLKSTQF
Assay type: cell-based
Experimental: In this Example, it was evaluated whether the Example compound and the Reference example compound mentioned below has the URAT1 inhibitory activity.
Human URAT1 full-length cDNA was introduced to an expression vector pcDNA5/FRT/V5-His TOPO (registered trademark) (Invitrogen Corporation). The obtained expression plasmid was introduced to Chinese hamster ovary cell (hereinafter referred to as the CHO cell) by the liposome method using Lipofectamine LTX (Invitrogen) and cultured in a selection medium including hygromycin, whereby to prepare human URAT1 stable expression cell.
The human URAT1 expression CHO cell were cultured using D-MEM/F-12 (1:1) mixed medium including 10% bovine fatal serum and hygromycin at 37° C. in the presence of 5% CO2. The cells were seeded onto a 96-well plate (Corning Incorporated) at 0.8×10^5 cells/well, and after 24 hours, the test for uric acid transport inhibition below was performed.
The medium was removed by aspiration, and then the cells were washed once with an assay buffer including 125 mM of sodium gluconate, 4.8 mM of potassium gluconate, 1.2 mM of potassium dihydrogen phosphate, 1.2 mM of magnesium sulfate, 1.3 mM of calcium gluconate and 5.6 mM of glucose, 50 μL assay buffer including the test compound in various concentrations was added, and further 50 μL assay buffer including a radioactive ligand (uric acid labeled with ^14C; 38 μM final concentration) was added, and incorporation reaction was performed at room temperature for 5 minutes. Immediately after the completion of the reaction, the reaction mixture was washed twice with 100 μL ice-cold assay buffer, and 100 μL of 0.1N sodium hydroxide was added. The reaction mixture was stirred to lyse the cells, and 4 mL of Hionic-Fluor (Packard BioScience CO.) was added, and then the radioactivity was measured with a liquid scintillation counter (Beckman Coulter, Inc. and Packard BioScience CO).
The radioactivitiy when each concentration of the test compound was added (uric acid incorporation activity, %) was calculated in which the difference of the radioactivity when the test compound was not added (DMSO added) and the radioactivity when a positive control compound, benzbromarone (a known URAT1 inhibitor) was added in 100 μM, was taken as 100%, and the concentration of the test compound when the uric acid incorporation activity was inhibited to 50% (IC50) was obtained.

IC50	Compound
7 nM	Cc1nn(Cc2c(Cl)cccc2Cl)c2cc(C(F)(F)c3nnn[nH]3)ccc12 [Example 50, 1-(2,6-dichlorobenzyl)-6-[difluoro(1H-tetrazol-5-yl)methyl]-3-methyl-1H-indazole]
16 nM	O=C(O)Cc1ccc2c(Cl)nn(Cc3c(Cl)cccc3Cl)c2c1 [Reference Example 12, [3-chloro-1-(2,6-dichlorobenzyl)-1H-indazol-6-yl]acetic acid, reference compound]
142 nM	Cc1nn(S(=O)(=O)c2c(Cl)cccc2Cl)c2cc(C(F)(F)c3nnn[nH]3)ccc12 [Example 102, 1-(2,6-dichlorobenzenesulfonyl)-6-[difluoro(1H-tetrazol-5-yl)methyl]-3-methyl-1H-indazole]
34 nM	Cc1nn(Cc2c(Cl)cccc2C2CC2)c2cc(C(F)(F)C(=O)O)cnc12 [Example 38, [1-(2-chloro-6-cyclopropylbenzyl)-3-methyl-1H-pyrazolo[4,3-b]pyridin-6-yl]difluoroacetic acid]
34 nM	Cc1nn(Cc2ccc(C#N)cc2)c2cc(C(F)(F)c3nnn[nH]3)ccc12 [Example 88, 4-{6-[difluoro(1H-tetrazol-5-yl)methyl]-3-methyl-1H-indazol-1-ylmethyl}benzonitrile]
243 nM	CCc1nn(Cc2c(F)cccc2C2CC2)c2cc(C(F)(F)C(=O)O)cnc12 [Example 46, [1-(2-cyclopropyl-6-fluorobenzyl)-3-ethyl-1H-pyrazolo[4,3-b]pyridin-6-yl]difluoroacetic acid]
40 nM	Cc1nn(Cc2c(F)cccc2Cl)c2cc(C(F)(F)C(=O)O)ccc12 [example 9, [1-(2-chloro-6-fluorobenzyl)-3-methyl-1H-indazol-6-yl]difluoroacetic acid]
46 nM	Cc1nn(Cc2c(Cl)cccc2C(N)=O)c2cc(C(F)(F)c3nnn[nH]3)ccc12 [example 67, 3-chloro-2-{6-[difluoro(1H-tetrazol-5-yl)methyl]-3-methyl-1H-indazol-1-ylmethyl}benzamide]
17 nM	Cc1nn(Cc2c(Cl)cccc2C2CC2)c2cc(C(F)(F)C(=O)O)ccc12 [Example 12, [1-(2-chloro-6-cyclopropylbenzyl)-3-methyl-1H-indazol-6-yl]difluoroacetic acid]
6 nM	Cc1cccc(C#N)c1Cn1nc(C)c2ccc(C(F)(F)c3nnn[nH]3)cc21 [Example 71, 2-{6-[difluoro(1H-tetrazol-5-yl)methyl]-3-methyl-1H-indazol-1-ylmethyl}-3-methylbenzonitrile]
125 nM	Cc1nn(Cc2cccc3ccncc23)c2cc(C(F)(F)c3nnn[nH]3)ccc12 [Example 94, 8-{6-[difluoro(1H-tetrazol-5-yl)methyl]-3-methyl-1H-indazol-1-ylmethyl}isoquinoline]
53 nM	Cc1nn(Cc2c(Cl)cccc2C2CC2)c2cc(C(=O)O)cnc12 [Reference Example 2, 1-(2-chloro-6-cyclopropylbenzyl)-3-methyl-1H-pyrazolo[4,3-b]pyridine-6-carboxylic acid, reference compound]
26 nM	Cc1cccc(C#N)c1Cn1nc(C)c2ccc(C(F)(F)C(=O)O)cc21 [example 24, [1-(2-cyano-6-methylbenzyl)-3-methyl-1H-indazol-6-yl]difluoroacetic acid]
52 nM	Cc1nn(Cc2c(F)cccc2C(F)(F)F)c2cc(C(F)(F)C(=O)O)ccc12 [example 22, difluoro[1-(2-fluoro-6-trifluoromethylbenzyl)-3-methyl-1H-indazol-6-yl]acetic acid]
12 nM	Cc1cccc(CC#N)c1Cn1nc(C)c2ccc(C(F)(F)c3nnn[nH]3)cc21 [Example 107, (2-{6-[difluoro(1H-tetrazol-5-yl)methyl]-3-methyl-1H-indazol-1-ylmethyl}-3-methylphenyl)acetonitrile]
30 nM	Cc1nn(Cc2c(C#N)cccc2CO)c2cc(C(F)(F)c3nnn[nH]3)ccc12 [example 104]
